Tests used:
[1] = Enantioselective gas chromatographic analysis of PCB residues in larvae; type: in vivo, zebrafish; conditions: residues in exposed larvae; no significant atropisomeric enrichment
Experimental: The enantioselective analysis of PCB 84 was performed on a 6890 Agilent gas chromatograph equipped with a ^63Ni-µECD detector and CP-Chiralsil-Dex CB capillary column with cyclodextrin directly bonded to dimethylpolysiloxane (25 m length, 0.25 mm inner diameter, 0.25 µm film thickness; Varian, Palo Alto, CA, United States). The temperature program was as follows ([Kania-Korwel et al., 2006]): starting temperature 50°C, hold for 1 min, 10°C/min to 140°C for 100 min, then 10°C/min to 200°C for 5 min. The enantioselective analysis of PCB 95 was performed on a 7890 Agilent gas chromatograph equipped with a ^63Ni-µECD detector and Chiraldex B-DM (BDM) capillary column (length, 30 m × inner diameter, 250 μm × 0.12 µm film thickness, Supelco; St. Louis, MO, United States). The following temperature program was used ([Uwimana et al., 2016]): starting temperature 50°C for 1 min, 10°C/min to 160°C for 90 min, then 10°C/min to 200°C for 10 min. For both instruments, the injector was operated in the splitless mode at 250°C, and the detector temperature was 250°C. […] Enantiomer fractions (EF) were calculated with the drop valley method ([Asher et al., 2009]; [Uwimana et al., 2016]) as EF = Area E1/(Area E1 + Area E2), were Area E1 and Area E2 denote the peak area of the first and second eluting atropisomer, respectively. […]

larval zebrafish = test: Teratological and mortality assessment, static exposure 6 hpf to 5 dpf; type: in vivo; conditions: 30 µM; by 3 dpf; data not shown
Experimental: At 4 hpf, embryos were treated with 50 µl of 41 mg/ml protease from Streptomyces griseus (P5147, Sigma-Aldrich, St. Louis, MO, United States) in 25 ml of FW for a maximum of 6 min to remove the chorion ([Truong et al., 2011]). At 5 hpf, embryos were placed in individual wells of 96-well plates filled with 100 µl of EM. At 6 hpf, embryos were exposed to a 2× concentration of the selected PCB congeners or controls that were diluted in 100 μl EM to produce a 1× concentration in a total of 200 µl solution. […] After exposure, plates were covered with Parafilm M (Bemis NA, Neenah, WI, United States) to reduce evaporation and placed in an incubator at 28.5°C with 14 h light (∼300 lux)/10 h dark cycles. Final DMSO concentrations were 0.2% (vol/vol) for all exposures. Fish were statically exposed until 5 dpf.
Exposed fish were examined daily for any gross morphological malformations and mortality using an Olympus Stereo Microscope Model SZ61 (Olympus, Japan) up to ×4.5 magnification. […] Teratological endpoints that were evaluated include yolk sac edema, pericardial edema, somite formation, deformities of the body axis, notochord, craniofacial structures, or caudal fin. Malformations were scored in a binary manner of either present or not present. Fish that were scored as neither malformed nor dead were deemed viable. […]

| SMILES | average EF (enantiomer fraction) values [1] | loss of viability (larval zebrafish) [%] |
| --- | --- | --- |
| Clc1cccc(-c2c(Cl)ccc(Cl)c2Cl)c1Cl [PCB 84] | 0.50 ± 0.01 | – |
| Clc1ccc(Cl)c(-c2c(Cl)ccc(Cl)c2Cl)c1 [PCB 95, 2,2',3,5',6-pentachlorobiphenyl] | 0.50 ± 0.01 | ~100 |

From paper PMC9582434, “Ryanodine receptor-active non-dioxin-like polychlorinated biphenyls cause neurobehavioral deficits in larval zebrafish” (Frontiers in Toxicology, 2022)
